Assays:
MCF10A = test: MTT screening assay, MCF10A non-cancer cells; format: cell-based, human
Excerpt: (§1) The ability of newly synthesized indole phytoalexins to suppress cell proliferation was screened in vitro on eight cancer cell lines including human colorectal carcinoma (Caco-2 and HCT116), human cervical cancer (HeLa), human breast adenocarcinoma (MCF-7, MDA-MB-231), human alveolar adenocarcinoma (A549) and human leukemic T cell lymphoma (Jurkat), and two non-cancer cell lines (MCF-10A, Cos-7).
(§2) The cell lines used for this study were Caco-2 (human colorectal adenocarcinoma cell line, American Type Culture Collection, Manassas, VA, USA (ATCC)), HCT116 (human colorectal carcinoma cells European Collection of Authenticated Cell Cultures, Salisbury, UK (ECACC)), HeLa (human cervical tumor cells, ECACC), MCF-7 (human breast tumor cells, ECACC), MDA-MB-231 (human breast tumor cells, ATCC), A549 (human lung carcinoma cells, ATCC), BLM (human melanoma lung metastases, a gift from prof. K. Smetana, Institute of Anatomy, Charles University in Prague), Jurkat (human leukemia cell line, ECACC), Cos-7 (immortalized monkey kidney fibroblasts, ATCC) and MCF-10A (human mammary epithelial cells, ATCC). Caco-2, MCF-7, BLM, Cos-7 and A549 cells were cultured in Dulbecco’s Modified Eagle’s Medium (DMEM) with high glucose and sodium pyruvate (GE Healthcare, Piscataway, NJ, USA); HCT116 lines, HeLa, MDA-MB-231 and Jurkat were cultured in RPMI-1640 medium; and MCF10A cells were cultured in high glucose DMEM/F12 (Dulbecco’s Modified Eagle’s Medium F12). The media were enriched with 10% fetal bovine serum (FBS) and a 1% solution of a mixture of antibiotics and antimycotics 1× HyClone™ (GE Healthcare, Chicago, IL, USA). DMEM/F12 medium was supplemented with epidermal growth factor (EGF) (20 ng/mL final), hydrocortisone (0.5 μg/mL final) and insulin (10 μg/mL final) (Sigma-Aldrich Chemie, Steinheim, Germany). The cells were placed in an incubator at 37 °C with humidified air containing 5% CO2.
(§3) The MTT assay is a colorimetric method used to quantify the metabolic activity of cells. MTT (3-(4,5-di-methylthiazol-2-yl)2,5-diphenyltetrazolium bromide) (Sigma-Aldrich Chemie, Steinheim, Germany) is reduced by oxidoreductases in the cytosol of cells to light-absorbing formazan, the presence of which can be measured spectrophotometrically and determines the half-maximal inhibitory concentration (IC50). A549 cells were seeded in […] culture plates at a density of 5 × 10^3 per well. After 24 h of cultivation, the tested substance 49 was added in concentrations of 10, 50 and 100 µM.
(§4) We also incubated the cells with chloroquine at concentrations of 5–20 µM, which was added 1 h before the addition of the test substance, and cisplatin at concentrations of 3–10 µM. Cisplatin was added 24 h after the addition of 49. After 72 h of incubation, 10 µL of MTT (5 mg/mL) was added to each well. After 4 h, formazan crystals formed in the wells, which were dissolved in 100 uL of 10% SDS (sodium dodecyl sulfate). After 24 h, the absorbance was measured at a wavelength of 540 nm using an automated Cytation™ 3 Cell Imaging Multi-Mode Reader (Biotek, Winooski, VT, USA). These experiments were performed in three independent replicates.

MDA-MB-231 = test: MTT screening assay, MDA-MB-231; format: cell-based; settings: Homo sapiens, 72 h incubation
Excerpt: as §1, §2
as §3, with “After 24 h of cultivation, the tested substance 49 was added in concentrations of 10, 50 and 100 µM.” left out
(§5) We also incubated the cells with chloroquine at concentrations of 5–20 µM, which was added 1 h before the addition of the test substance, and cisplatin at concentrations of 3–10 µM. […] After 24 h, the absorbance was measured at a wavelength of 540 nm using an automated Cytation™ 3 Cell Imaging Multi-Mode Reader (Biotek, Winooski, VT, USA). […]

Caco-2 = test: MTT screening assay, Caco-2; format: cell-based; settings: Homo sapiens, 72 h incubation
Excerpt: as §1, §2
as §3, with “After 24 h of cultivation, the tested substance 49 was added in concentrations of 10, 50 and 100 µM.” left out
as §5

Phospho-AMPKα = test: Western blot, phospho-AMPK; format: cell-based, human; settings: A549, 24, 48, 72 h
Excerpt: ULK1/AMPK. ULK1 is a serine/threonine protein kinase. The ULK1 complex controls the formation of the phagophore, the initial autophagosomal precursor membrane structure. Upon induction of autophagy, the ULK1 complex translocates to autophagy initiation sites and regulates the recruitment of a second kinase complex, VPS34. ULK1 can be inhibited by phosphorylation by mammalian target of rapamycin complex 1 (mTORC1) or activated after AMP-activated protein kinase (AMPK) phosphorylation. Under conditions of nutrient deficiency, AMPK is activated, which directly activates ULK1. The kinase is phosphorylated, i.e., activated by an increased AMP/ATP ratio due to cellular and environmental stress. AMPK also inactivates mTORC1 and thus blocks its inhibitory action on autophagy activation.
A549 cells were seeded on Petri dishes (55 cm^2) at a density of 1 × 10^6 and allowed to culture in the medium. After 24 h, the test substance was added, and the cells were incubated for 24, 48 and 72 h. […] After lysis, the cells were sonicated, and the protein concentration in the samples was quantified using the Pierce® BCA Protein Assay Kit (Thermo Scientific, Rockford, IL, USA) and measured by an automated Cytation™ 3 Cell Imaging Multi-Mode Reader (Biotek) at a wavelength of 570 nm. […]

A549 cells = test: MTT assay with chloroquine combination; format: cell-based, human; settings: 49 20 μM + CQ 5, 10 and 20 μM, 72 h
Description: as §3, with “After 24 h of cultivation, the tested substance 49 was added in concentrations of 10, 50 and 100 µM.” left out
as §4

A549 = test: MTT screening assay, A549; format: cell-based; settings: Homo sapiens, 72 h incubation
Excerpt: as §1, §2
as §3, with “After 24 h of cultivation, the tested substance 49 was added in concentrations of 10, 50 and 100 µM.” left out
as §5

CC(C)(C)OC(=O)n1cc(CNC(=O)Nc2ccc(NC(=O)NCc3cn(C(=O)OC(C)(C)C)c4ccccc34)cc2)c2ccccc21 [Compound 49, N,N′-(1,4-phenylene)bis{N′-[1-(tert-butoxycarbonyl)indol-3-yl]methyl (urea)}]
IC50 (MCF10A; Homo sapiens, MCF-10A, 72 h incubation, MTT, non-cancer cells): 55.1 ± 4.1 µM
Selectivity index—A549 cells vs. non-cancer cells (MCF10A) (MCF10A; IC50 MCF10A / IC50 A549): 6.3
IC50 (MDA-MB-231): > 100 µM
IC50 (Caco-2): 8.6 ± 0.9 µM
phosphorylated form of AMPK (Phospho-AMPKα): significant increase
effect of chloroquine co-treatment on the antiproliferative effect of compound 49 (A549 cell survival) (A549 cells): significantly potentiated
IC50 (A549): 8.7 ± 0.1 µM

Reference: PMC9822133, “Design, Synthesis and Antiproliferative Evaluation of Bis-Indole Derivatives with a Phenyl Linker: Focus on Autophagy” (Molecules, 2022)
